Earlier results as cited in patent US12187744B2, “IRAK4 degraders and synthesis thereof” (Kymera Therapeutics, Inc., priority 2021, dated 2025).

Tests used:
[1] = per ICH M7(R1) guidance
[2] = in vivo

Compound	ICH M7(R1) Class [1]	results in rodent carcinogenicity assays [2]
CC(C)Cl [Isopropyl chloride]	2	
CI [Methyl iodide]		positive
